# Data taken from publication PMC10860121 (ACS infectious diseases, 2023).
# System: not listed separately
# Test: In vitro intrinsic clearance in mouse liver microsomes
# Assay type: in vitro ADME
# Settings: not given
SMILES,microsomal CLint [µL/min/mg],m CLint [μL/min/mg protein]
"CS(=O)(=O)c1ccc2c(c1)C(=O)CCc1ccccc1C(=O)N2 [Compound 23, 2-(Methylsulfonyl)-11,12-dihydro-5H-dibenzo[b,g]-azonine-6,13-dione]",19,
"O=C1Nc2ccc(F)cc2C(=O)CCc2ccccc21 [Compound 24, 2-Fluoro-11,12-dihydro-5H-dibenzo[b,g]azonine-6,13-dione]",74,
"O=C1Nc2ncccc2C(=O)CCc2ccccc21 [Compound 29, 6,7-Dihydro-5H-benzo[g]pyrido[2,3-b]azonine-5,12-(13H)-dione]",,26
"O=C1CCc2ncccc2C(=O)Nc2ccccc21 [Compound 30, 12,13-Dihydro-5H-benzo[b]pyrido[2,3-g]azonine-5,11(6H)-dione]",18,

# Now from value to compound:
microsomal CLint [µL/min/mg],m CLint [μL/min/mg protein],SMILES
79,,"O=C1Nc2ccc(C(F)(F)F)cc2C(=O)CCc2ccccc21 [Compound 25, 2-(Trifluoromethyl)-11,12-dihydro-5H-dibenzo[b,g]-azonine-6,13-dione]"
110,,"O=C1Nc2ccc(OC(F)(F)F)cc2C(=O)CCc2ccccc21 [Compound 26, 2-(Trifluoromethoxy)-11,12-dihydro-5H-dibenzo-[b,g]azonine-6,13-dione]"
71,,"O=C1Nc2ccc(S(F)(F)(F)(F)F)cc2C(=O)CCc2ccccc21 [Compound 27, 2-(Pentafluoro-λ^6-sulfaneyl)-11,12-dihydro-5H-dibenzo[b,g]azonine-6,13-dione]"

# System: rat skeletal myoblast L6 cell line
# Test: Cytotoxicity, growth inhibition of L6 cells
# Assay type: cell-based
# Settings: read-out: L6 IC50, mean from n ≥ 2
row,SMILES,IC50 [nM]
1,"O=C1Nc2ncccc2C(=O)CCc2ccccc21 [Compound 29, 6,7-Dihydro-5H-benzo[g]pyrido[2,3-b]azonine-5,12-(13H)-dione]",60000

# System: not listed separately
# Test: In vitro intrinsic clearance in human liver microsomes
# Assay type: in vitro ADME
# Settings: not given
row,h CLint [μL/min/mg protein],SMILES
1,13,"O=C1Nc2ncccc2C(=O)CCc2ccccc21 [Compound 29, 6,7-Dihydro-5H-benzo[g]pyrido[2,3-b]azonine-5,12-(13H)-dione]"

# Same assay, conditions: human, liver microsomes, h CLint
row,SMILES,microsomal CLint [µL/min/mg]
1,"CS(=O)(=O)c1ccc2c(c1)C(=O)CCc1ccccc1C(=O)N2 [Compound 23, 2-(Methylsulfonyl)-11,12-dihydro-5H-dibenzo[b,g]-azonine-6,13-dione]",46
2,"O=C1Nc2ccc(F)cc2C(=O)CCc2ccccc21 [Compound 24, 2-Fluoro-11,12-dihydro-5H-dibenzo[b,g]azonine-6,13-dione]",38
3,"O=C1CCc2ncccc2C(=O)Nc2ccccc21 [Compound 30, 12,13-Dihydro-5H-benzo[b]pyrido[2,3-g]azonine-5,11(6H)-dione]",19

# The next lines start with the values.
row,microsomal CLint [µL/min/mg],SMILES
1,240,"O=C1Nc2ccc(C(F)(F)F)cc2C(=O)CCc2ccccc21 [Compound 25, 2-(Trifluoromethyl)-11,12-dihydro-5H-dibenzo[b,g]-azonine-6,13-dione]"
2,240,"O=C1Nc2ccc(OC(F)(F)F)cc2C(=O)CCc2ccccc21 [Compound 26, 2-(Trifluoromethoxy)-11,12-dihydro-5H-dibenzo-[b,g]azonine-6,13-dione]"
3,190,"O=C1Nc2ccc(S(F)(F)(F)(F)F)cc2C(=O)CCc2ccccc21 [Compound 27, 2-(Pentafluoro-λ^6-sulfaneyl)-11,12-dihydro-5H-dibenzo[b,g]azonine-6,13-dione]"

# System: not listed separately
# Test: Kinetic solubility at pH 6.5 by nephelometry
# Assay type: physicochemical
# Settings: pH 6.5 phosphate buffer, 1% DMSO, solubility range by nephelometry
row,Kinetic Sol6.5 [µg/mL],SMILES
1,>100,"O=C1Nc2ncccc2C(=O)CCc2ccccc21 [Compound 29, 6,7-Dihydro-5H-benzo[g]pyrido[2,3-b]azonine-5,12-(13H)-dione]"

# System: Chloroquine-sensitive NF54 P. falciparum isolate
# Test: In vitro antiplasmodial activity, NF54
# Assay type: cell-based, Plasmodium falciparum
# Settings: Plasmodium falciparum, NF54, read-out: P. falciparum IC50, NF54; mean from n ≥ 2
row,SMILES,IC50 [nM]
1,"CS(=O)(=O)c1ccc2c(c1)C(=O)CCc1ccccc1C(=O)N2 [Compound 23, 2-(Methylsulfonyl)-11,12-dihydro-5H-dibenzo[b,g]-azonine-6,13-dione]",5300
2,"O=C1Nc2ccc(F)cc2C(=O)CCc2ccccc21 [Compound 24, 2-Fluoro-11,12-dihydro-5H-dibenzo[b,g]azonine-6,13-dione]",56
3,"O=C1CCc2ncccc2C(=O)Nc2ccccc21 [Compound 30, 12,13-Dihydro-5H-benzo[b]pyrido[2,3-g]azonine-5,11(6H)-dione]",9400

# Now from value to compound:
row,IC50 [nM],SMILES
1,9.4,"O=C1Nc2ccc(C(F)(F)F)cc2C(=O)CCc2ccccc21 [Compound 25, 2-(Trifluoromethyl)-11,12-dihydro-5H-dibenzo[b,g]-azonine-6,13-dione]"
2,4.2,"O=C1Nc2ccc(OC(F)(F)F)cc2C(=O)CCc2ccccc21 [Compound 26, 2-(Trifluoromethoxy)-11,12-dihydro-5H-dibenzo-[b,g]azonine-6,13-dione]"
3,4.2,"O=C1Nc2ccc(S(F)(F)(F)(F)F)cc2C(=O)CCc2ccccc21 [Compound 27, 2-(Pentafluoro-λ^6-sulfaneyl)-11,12-dihydro-5H-dibenzo[b,g]azonine-6,13-dione]"

# Same assay, conditions: antiplasmodial selectivity, L6 cytotoxicity vs P. falciparum
row,SMILES,in vitro selectivity index
1,"O=C1Nc2ccc(OC(F)(F)F)cc2C(=O)CCc2ccccc21 [Compound 26, 2-(Trifluoromethoxy)-11,12-dihydro-5H-dibenzo-[b,g]azonine-6,13-dione]","> 10,000"

# Same assay, conditions: read-out: P. falciparum IC50; NF54; mean from n ≥ 2
row,IC50 [nM],SMILES
1,8900,"O=C1Nc2ncccc2C(=O)CCc2ccccc21 [Compound 29, 6,7-Dihydro-5H-benzo[g]pyrido[2,3-b]azonine-5,12-(13H)-dione]"

# System: not listed separately
# Test: Chromatographic LogD7.4
# Assay type: physicochemical
# Settings: chromatographically determined, pH 7.4
row,gLogD7.4,SMILES
1,> 3,"O=C1Nc2ccc(OC(F)(F)F)cc2C(=O)CCc2ccccc21 [Compound 26, 2-(Trifluoromethoxy)-11,12-dihydro-5H-dibenzo-[b,g]azonine-6,13-dione]"
2,> 3,"O=C1Nc2ccc(S(F)(F)(F)(F)F)cc2C(=O)CCc2ccccc21 [Compound 27, 2-(Pentafluoro-λ^6-sulfaneyl)-11,12-dihydro-5H-dibenzo[b,g]azonine-6,13-dione]"
3,1.2,"O=C1Nc2ncccc2C(=O)CCc2ccccc21 [Compound 29, 6,7-Dihydro-5H-benzo[g]pyrido[2,3-b]azonine-5,12-(13H)-dione]"

# Same assay, conditions: gradient HPLC, Phenomenex Synergi Hydro-RP column, pH 7.4
row,SMILES,chromatographic logD
1,"CS(=O)(=O)c1ccc2c(c1)C(=O)CCc1ccccc1C(=O)N2 [Compound 23, 2-(Methylsulfonyl)-11,12-dihydro-5H-dibenzo[b,g]-azonine-6,13-dione]",1.6
2,"O=C1Nc2ccc(F)cc2C(=O)CCc2ccccc21 [Compound 24, 2-Fluoro-11,12-dihydro-5H-dibenzo[b,g]azonine-6,13-dione]",2.2
3,"O=C1CCc2ncccc2C(=O)Nc2ccccc21 [Compound 30, 12,13-Dihydro-5H-benzo[b]pyrido[2,3-g]azonine-5,11(6H)-dione]",0.9

# Now from value to compound:
row,chromatographic logD,SMILES
1,3,"O=C1Nc2ccc(C(F)(F)F)cc2C(=O)CCc2ccccc21 [Compound 25, 2-(Trifluoromethyl)-11,12-dihydro-5H-dibenzo[b,g]-azonine-6,13-dione]"
2,3.1,"O=C1Nc2ccc(OC(F)(F)F)cc2C(=O)CCc2ccccc21 [Compound 26, 2-(Trifluoromethoxy)-11,12-dihydro-5H-dibenzo-[b,g]azonine-6,13-dione]"
3,3.3,"O=C1Nc2ccc(S(F)(F)(F)(F)F)cc2C(=O)CCc2ccccc21 [Compound 27, 2-(Pentafluoro-λ^6-sulfaneyl)-11,12-dihydro-5H-dibenzo[b,g]azonine-6,13-dione]"
